Experimental data as given in patent publication US20080027117A1, “Antifungal Azole Derivatives Having a Fluorovinyl Moiety and Process for the Preparation Thereof” (KOREA RESERACH INSTIITUTE OF CHEMICAL TECHNOLOGY, priority 2003, published 2008).
≈ marks a conversion by molar mass, not a printed value. Like-named read-outs stand apart in the source and are kept apart here.

Columns and labels:
CYP 2C9 = CYP 2C9 (Homo sapiens, UniProt P11712); assay: Hepatic toxicity: Diclofenac 4′-hydroxylase in human hepatic microsomes
Chain of CYP 2C9 (P11712 whole entry): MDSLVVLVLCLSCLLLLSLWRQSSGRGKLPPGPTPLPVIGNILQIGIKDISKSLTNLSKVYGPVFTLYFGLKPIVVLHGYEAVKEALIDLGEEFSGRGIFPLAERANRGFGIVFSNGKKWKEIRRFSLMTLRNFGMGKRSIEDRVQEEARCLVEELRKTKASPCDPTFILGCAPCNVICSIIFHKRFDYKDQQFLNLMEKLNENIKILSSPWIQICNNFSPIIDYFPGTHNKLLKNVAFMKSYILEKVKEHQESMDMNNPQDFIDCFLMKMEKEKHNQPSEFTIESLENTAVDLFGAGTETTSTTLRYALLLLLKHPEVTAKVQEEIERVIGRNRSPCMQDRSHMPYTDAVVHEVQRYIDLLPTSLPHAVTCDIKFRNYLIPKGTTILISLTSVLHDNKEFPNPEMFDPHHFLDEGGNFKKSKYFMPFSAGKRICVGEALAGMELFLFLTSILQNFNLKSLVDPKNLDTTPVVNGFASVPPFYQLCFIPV
Experimental: (§1) After incubating at 37° C. for 20 min, 200 μl of each resulting solution was mixed with 100 μl of acetonitrile, and analyzed with LC-MS (LC column: Luna2 C8, 2×100 mm, flow velocity: 0.2 ml/min, MS system: Quattro LC (micromass)) using a 5% MeOH aqueous solution containing 0.1% formic acid as an eluent.

CYP 2D6 = CYP 2D6 (Homo sapiens, UniProt P10635); assay: Hepatic toxicity: Bufuralol 1′-hydroxylase in human hepatic microsomes
Chain of CYP 2D6 (P10635 whole entry): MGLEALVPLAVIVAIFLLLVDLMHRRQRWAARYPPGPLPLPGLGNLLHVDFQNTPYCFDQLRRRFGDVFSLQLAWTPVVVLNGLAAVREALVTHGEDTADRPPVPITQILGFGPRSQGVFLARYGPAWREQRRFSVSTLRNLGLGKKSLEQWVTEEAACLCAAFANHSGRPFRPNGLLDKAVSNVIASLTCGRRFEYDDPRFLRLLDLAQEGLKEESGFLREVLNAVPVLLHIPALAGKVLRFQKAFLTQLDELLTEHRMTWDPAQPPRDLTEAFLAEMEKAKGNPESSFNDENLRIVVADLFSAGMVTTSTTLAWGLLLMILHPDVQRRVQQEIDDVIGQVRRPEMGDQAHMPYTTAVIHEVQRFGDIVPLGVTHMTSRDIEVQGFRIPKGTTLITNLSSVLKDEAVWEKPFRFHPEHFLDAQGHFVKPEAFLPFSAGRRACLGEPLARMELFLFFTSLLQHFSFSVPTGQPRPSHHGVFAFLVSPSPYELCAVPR
Experimental: as §1

CYP 1A2 = target: T1, CYP 1A2 (Homo sapiens, UniProt P05177); assay: Hepatic toxicity: Phenacetin O-deethylase in human hepatic microsomes
T1 sequence (P05177 1-516): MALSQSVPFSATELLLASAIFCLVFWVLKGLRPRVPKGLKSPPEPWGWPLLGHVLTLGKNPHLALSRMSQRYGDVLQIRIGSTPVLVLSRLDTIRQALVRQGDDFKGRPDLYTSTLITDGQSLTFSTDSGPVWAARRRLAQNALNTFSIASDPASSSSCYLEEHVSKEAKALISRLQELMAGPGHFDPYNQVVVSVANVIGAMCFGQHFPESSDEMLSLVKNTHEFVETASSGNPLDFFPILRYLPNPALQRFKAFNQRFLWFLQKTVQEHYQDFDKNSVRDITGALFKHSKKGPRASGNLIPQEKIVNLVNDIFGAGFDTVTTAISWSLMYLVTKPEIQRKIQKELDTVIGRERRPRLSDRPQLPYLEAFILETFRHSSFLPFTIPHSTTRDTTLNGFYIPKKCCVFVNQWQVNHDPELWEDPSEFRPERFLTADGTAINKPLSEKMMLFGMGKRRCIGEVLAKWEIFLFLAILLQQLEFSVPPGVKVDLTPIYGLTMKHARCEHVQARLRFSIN
Experimental: as §1

CYP 2C19 = CYP 2C19 (Homo sapiens, UniProt P33261); assay: Hepatic toxicity: Mephenytoin 4-hydroxylase in human hepatic microsomes
Chain of CYP 2C19 (P33261 whole entry): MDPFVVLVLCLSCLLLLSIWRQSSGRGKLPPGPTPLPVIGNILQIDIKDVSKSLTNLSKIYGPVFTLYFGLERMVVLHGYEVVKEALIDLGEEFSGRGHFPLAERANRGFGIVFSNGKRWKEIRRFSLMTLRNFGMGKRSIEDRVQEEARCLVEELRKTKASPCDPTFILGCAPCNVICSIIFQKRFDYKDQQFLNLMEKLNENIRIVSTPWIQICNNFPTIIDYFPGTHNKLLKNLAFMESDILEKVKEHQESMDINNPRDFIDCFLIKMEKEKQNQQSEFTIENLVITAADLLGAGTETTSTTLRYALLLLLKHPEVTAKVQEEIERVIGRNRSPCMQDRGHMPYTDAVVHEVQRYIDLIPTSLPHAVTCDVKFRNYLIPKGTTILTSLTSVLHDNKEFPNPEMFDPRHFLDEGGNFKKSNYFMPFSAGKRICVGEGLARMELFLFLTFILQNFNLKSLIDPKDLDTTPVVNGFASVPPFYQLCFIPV
Experimental: as §1

CYP 2A6 = target: T2, CYP 2A6 (Homo sapiens, UniProt P11509); assay: Hepatic toxicity: Coumarin 7-hydroxylase in human hepatic microsomes
T2 sequence (P11509 1-494): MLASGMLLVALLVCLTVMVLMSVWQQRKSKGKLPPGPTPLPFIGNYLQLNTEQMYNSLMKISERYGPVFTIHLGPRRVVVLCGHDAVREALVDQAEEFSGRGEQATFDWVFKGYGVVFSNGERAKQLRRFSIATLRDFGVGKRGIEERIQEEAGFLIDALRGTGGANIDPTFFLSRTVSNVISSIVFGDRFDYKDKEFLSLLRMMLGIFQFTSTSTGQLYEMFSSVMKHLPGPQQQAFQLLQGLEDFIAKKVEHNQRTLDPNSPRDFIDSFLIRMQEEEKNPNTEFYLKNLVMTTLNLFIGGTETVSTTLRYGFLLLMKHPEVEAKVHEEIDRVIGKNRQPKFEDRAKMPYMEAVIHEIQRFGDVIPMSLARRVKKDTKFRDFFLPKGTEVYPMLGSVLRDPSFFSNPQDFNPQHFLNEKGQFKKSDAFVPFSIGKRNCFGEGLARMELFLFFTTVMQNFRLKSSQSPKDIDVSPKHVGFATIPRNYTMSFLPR
Experimental: as §1

CYP 2C8 = target: T3, CYP 2C8 (Homo sapiens, UniProt P10632); assay: Hepatic toxicity: Paclitaxel 6 α-hydroxylase in human hepatic microsomes
T3 sequence (P10632 1-490): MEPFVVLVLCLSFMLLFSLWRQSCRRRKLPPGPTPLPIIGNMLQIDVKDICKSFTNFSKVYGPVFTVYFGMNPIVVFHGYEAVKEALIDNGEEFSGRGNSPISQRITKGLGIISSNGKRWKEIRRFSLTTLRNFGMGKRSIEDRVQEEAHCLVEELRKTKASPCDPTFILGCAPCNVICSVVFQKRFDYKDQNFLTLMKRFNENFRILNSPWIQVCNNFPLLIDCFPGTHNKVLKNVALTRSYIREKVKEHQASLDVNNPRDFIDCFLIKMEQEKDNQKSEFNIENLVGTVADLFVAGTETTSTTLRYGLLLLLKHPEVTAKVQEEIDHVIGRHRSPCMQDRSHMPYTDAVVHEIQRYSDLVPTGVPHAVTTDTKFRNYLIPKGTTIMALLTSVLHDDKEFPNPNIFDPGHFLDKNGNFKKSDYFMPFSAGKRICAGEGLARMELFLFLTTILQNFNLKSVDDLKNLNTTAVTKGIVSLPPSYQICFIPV
Experimental: as §1

CYP 3A4 = CYP 3A4 (Homo sapiens, UniProt P08684); assay: Hepatic toxicity: Midazolam 1′-hydroxylase in human hepatic microsomes; settings: read-out: IC50 Midazolam 1′-hydroxylase CYP 3A4; human hepatic microsomes 0.5 mg/ml, 37° C., 20 min, LC-MS
Chain of CYP 3A4 (P08684 whole entry): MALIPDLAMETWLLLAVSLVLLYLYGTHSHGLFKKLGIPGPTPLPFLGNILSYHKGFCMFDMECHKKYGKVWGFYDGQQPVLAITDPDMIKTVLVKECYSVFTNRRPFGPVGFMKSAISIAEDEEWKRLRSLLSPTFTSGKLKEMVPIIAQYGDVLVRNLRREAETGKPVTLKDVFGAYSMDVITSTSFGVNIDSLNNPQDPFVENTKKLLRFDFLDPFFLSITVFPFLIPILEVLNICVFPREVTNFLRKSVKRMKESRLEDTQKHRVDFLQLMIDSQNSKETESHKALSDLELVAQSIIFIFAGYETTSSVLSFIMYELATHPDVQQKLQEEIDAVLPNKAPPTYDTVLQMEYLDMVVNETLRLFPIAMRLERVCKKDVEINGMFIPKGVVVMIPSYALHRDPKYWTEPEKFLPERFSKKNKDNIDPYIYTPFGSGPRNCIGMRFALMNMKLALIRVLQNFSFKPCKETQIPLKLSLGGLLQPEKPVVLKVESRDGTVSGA
Experimental: as §1

C. neoformans ATCC 36556 = assay: In vitro antifungal activity, microbroth dilution (MIC80); format: cell-based; settings: lowest concentration reducing growth by 80% relative to untreated control; RPMI-1640, 35° C.
Experimental: (§2) Sabourad Dextrose Agar (Difco), YM Agar or Potato Dextrose Agar was used as a culture medium according to ATCC information, and RPMI-1640 broth (Sigma. Co. w/L-glutamine, wo/NaHCO3)(0.165 M MOPS, pH 7.0), as a dilution medium. […] In the case of yeasts, the turbidity (light absorbance) of the suspension was adjusted to 0.108 at 530 nm, and then the suspension was diluted 1000-fold with sterile RPMI-1640 liquid medium to 1.0103˜5.0103 CFU/ml. The turbidity of fungi was adjusted to 80˜82% and the suspension was diluted 50-fold to 0.4102˜0.5104 CFU/ml. […] 0.1 ml portions of the test solutions were added to the wells of a sterile 96 well plate. Then, 0.1 ml portions of each test strain solutions were added successively to the wells and the plate was incubated at 35° C. for […]. Minimal inhibitory concentration (MIC80) of each compound was determined as the lowest concentration of the test compounds required to reduce growth by 80% relative to a control strain not treated.

[1] = tested on: Candida albicans ATCC 10231; assay: as above; format: cell-based; settings: lowest concentration reducing growth by 80% relative to untreated control; RPMI-1640, 35° C.
Experimental: as §2

Candida krusei ATCC 6258 = assay: as above; format: cell-based; settings: lowest concentration reducing growth by 80% relative to untreated control; RPMI-1640, 35° C.
Experimental: as §2

Candida albicans MYA-573 = assay: as above; format: cell-based; settings: lowest concentration reducing growth by 80% relative to untreated control; RPMI-1640, 35° C.
Experimental: as §2

A. fumigatus ATCC 16424 = assay: as above; format: cell-based; settings: lowest concentration reducing growth by 80% relative to untreated control; RPMI-1640, 35° C.
Experimental: as §2

ICR mice = assay: Toxicity of oral administration; format: in vivo; settings: oral administration in DMSO, observed over 2 weeks
Experimental: Specific pathogen-free ICR mice, 2 females and 2 males were used for the each testing. The compound of Example 40 of the present invention was dissolved in DMSO and the solution was orally administered in doses of 62, 125, 250, 500, 1,000 and 2,000 mg of the compound/kg of the body weight (10 ml of the sample volume/kg of the body weight).

MIC Range (MIC80) C. neoformans ATCC 36556 (C. neoformans ATCC 36556)	MIC Range (MIC80) Candida albicans ATCC 10231 [1]	MIC Range (MIC80) Candida krusei ATCC 6258 (Candida krusei ATCC 6258)	MIC Range (MIC80) Candida albicans MYA-573 (Candida albicans MYA-573)	MIC Range (MIC80) A. fumigatus ATCC 16424 (A. fumigatus ATCC 16424)	Structure (SMILES)	IC50 (CYP 3A4)	IC50 (CYP 2C9; microsomes)	IC50 (CYP 2D6; microsomes)	IC50 (CYP 1A2; microsomes)	IC50 (CYP 2C19; microsomes)	IC50 (CYP 2A6; microsomes)	IC50 (CYP 2C8; microsomes)	also measured
–	–	–	–	–	COc1ccc(C(=C(F)Oc2ccc(-c3ncn(C(C)C(O)(Cn4cncn4)c4ccc(F)cc4F)n3)cc2)C(F)(F)F)cc1 (stereo not drawn) [Example 32]	> 100 µM	–	–	–	–	–	–	IC50 (CYP 2C9; read-out: IC50 Diclofenac 4′-hydroxylase CYP 2C9, human hepatic microsomes 0.5 mg/ml, 37° C., 20 min, LC-MS): > 100 µM; IC50 (CYP 2D6; read-out: IC50 Bufuralol 1′-hydroxylase CYP 2D6, human hepatic microsomes 0.5 mg/ml, 37° C., 20 min, LC-MS): > 100 µM; IC50 (CYP 1A2; read-out: IC50 Phenacetin O-deethylase CYP 1A2, human hepatic microsomes 0.5 mg/ml, 37° C., 20 min, LC-MS): > 100 µM; IC50 (CYP 2C19; read-out: IC50 Mephenytoin 4-hydroxylase CYP 2C19, human hepatic microsomes 0.5 mg/ml, 37° C., 20 min, LC-MS): > 100 µM; IC50 (CYP 2A6; read-out: IC50 Coumarin 7-hydroxylase CYP 2A6, human hepatic microsomes 0.5 mg/ml, 37° C., 20 min, LC-MS): > 100 µM; IC50 (CYP 2C8; read-out: IC50 Paclitaxel 6 α-hydroxylase CYP 2C8, human hepatic microsomes 0.5 mg/ml, 37° C., 20 min, LC-MS): 19.9 µM
16~32 μg/ml	2~4 μg/ml	32~64 μg/ml	–	–	OC(Cn1cncn1)(Cn1cncn1)c1ccc(F)cc1F [Fluconazole, reference compound]	–	–	–	–	–	–	–	IC50 (CYP 2D6): 44.2 µM; IC50 (CYP 1A2): > 100 µM; IC50 (CYP 2A6): > 100 µM; IC50 (CYP 2C8): > 100 µM
0.25~1 μg/ml	0.5~1 μg/ml	1 µg/mL (≈ 1.08 µM)	1~2 μg/ml	0.5~1 μg/ml	C[C@@H]1[C@H](O)[C@@H](C)/C=C/C=C/C=C/C=C/C=C/C=C/C=C/[C@H](O[C@@H]2O[C@H](C)[C@@H](O)[C@H](N)[C@@H]2O)C[C@@H]2O[C@](O)(C[C@@H](O)C[C@@H](O)[C@H](O)CC[C@@H](O)C[C@@H](O)CC(=O)O[C@H]1C)C[C@H](O)[C@H]2C(=O)O [Amphotericine B, reference compound]	–	–	–	–	–	–	–	–
–	–	–	–	–	CC(n1cnc(-c2ccc(OC(F)=Cc3ccc(Cl)cc3)cc2)n1)C(O)(Cn1cncn1)c1ccc(F)cc1F (stereo not drawn) [Example 40]	> 100 µM	> 100 µM	> 100 µM	> 100 µM	> 100 µM	> 100 µM	30.1 µM	LD50 (ICR mice): approximately 1,750 mg/kg; fetal dose (ICR mice): 1,000˜2,000 mg/kg
–	–	–	–	–	CC(N1CCN(c2ccc(OC(F)=Cc3cccc(Cl)c3)cc2)C1=O)C(O)(Cn1cncn1)c1ccc(F)cc1F (mixture of isomers) [Example 111]	> 100 µM	> 100 µM	> 100 µM	> 100 µM	> 100 µM	> 100 µM	> 100 µM	–
0.5 µg/mL (≈ 1.04 µM)	1 µg/mL (≈ 2.08 µM)	4 µg/mL (≈ 8.31 µM)	1 µg/mL (≈ 2.08 µM)	>256 µg/mL	CC(OC(F)=Cc1ccc(Oc2ccccc2)cc1)C(O)(Cn1cncn1)c1ccc(F)cc1F (stereo not drawn) [Example 15]	–	–	–	–	–	–	–	–
4 µg/mL (≈ 8.75 µM)	2~4 μg/ml	>16 µg/mL	>256 µg/mL	>16 µg/mL	CC(OC(F)=C(c1ccccc1)C(F)(F)F)C(O)(Cn1cncn1)c1ccc(F)cc1F (stereo not drawn) [Example 5]	–	–	–	–	–	–	–	–
16 µg/mL (≈ 32.8 µM)	>64 µg/mL	>64 µg/mL	–	>64 µg/mL	COc1cccc(C(=C(F)OC(C)C(O)(Cn2cncn2)c2ccc(F)cc2F)C(F)(F)F)c1 (stereo not drawn) [Example 13]	–	–	–	–	–	–	–	–
–	–	–	–	–	CC(=O)N1CCN(c2ccc(OCC3COC(Cn4ccnc4)(c4ccc(Cl)cc4Cl)O3)cc2)CC1 (stereo not drawn) [ketoconazole, reference compound]	–	–	–	–	–	–	–	IC50 (CYP 2A6): > 100 µM
–	–	–	–	–	CC(n1ccn(-c2ccc(OC(F)=C(c3ccc(Cl)cc3)C(F)(F)F)cc2)c1=O)C(O)(Cn1cncn1)c1ccc(F)cc1F (mixture of isomers) [Example 121]	> 100 µM	> 100 µM	> 100 µM	> 100 µM	> 100 µM	> 100 µM	41.2 µM	–
